Legend:
[1] = Dose-escalating toxicity study; format: in vivo; conditions: oral or intraperitoneal administration, doses up to 2 g kg^−1
[2] = system: nephrotoxic nephritis (NTN) model; assay: Nephrotoxic nephritis (NTN, crescentic glomerulonephritis) in the WKY rat; format: in vivo, Wistar-Kyoto (WKY) rat
Text: Figure 5 Orally administrated ERG240 reduced the severity of crescentic glomerulonephritis in rats and CIA in mice. (a) Glomerular crescents, serum creatinine, and proteinuria levels measured in vehicle and ERG240 treated rats at day 10 following induction of nephrotoxic nephritis. At least n=4 rats were used in each group. (b) Col1a1 immunofluorescence (IF) quantification (left panel), representative IF and Sirius red staining images (middle panel) and Col1a1 qRT-PCR (normalized to Hprt) 28 days following NTS injection. Original magnification, × 20, at least n=4 animals were used in each group. (c) Clinical progression of CIA measured by the Mean Arthritis Index in vehicle and ERG240-treated animals in both studies (prophylactic and therapeutic, upper panel; at least n=6 animals per group). Histological analysis of joints from representative whole paws scored for inflammation, pannus formation, cartilage damage and bone resorption (lower panel). Error bars are s.e.m. Either Mann–Whitney or Student’s t-test were used for significance. *** P<0.001, ** P<0.01, * P<0.05. Scale bars, 50 μm.
Nephrotoxic nephritis (NTN) was induced in twelve week old male Wistar-Kyoto (WKY) rats by intravenous injection of 0.1 ml of nephrotoxic serum (NTS), as previously described. Five WKY rats received ERG240 (250 mg kg^−1) orally in 0.1% carboxymethylcellulose once a day for a duration of 10 days whereas the vehicle treated WKY rats had carboxymethylcellulose only for the same period. Nine days following NTS injection, urine was collected by placing rats in metabolic cages for 24 h with free access to food and water. Proteinuria was determined by the sulphosalicylic acid test and serum creatinine by the Creatinine Assay Kit (Abcam). After 10 or 28 days of NTN induction, rats were culled and the kidney was formalin fixed and paraffin embedded for immunohistochemistry. To quantify the number of macrophages infiltrating the glomeruli, formalin-fixed paraffin-embedded kidney sections were stained with mouse monoclonal antibody to ED-1 (Serotec, Oxford, UK), followed by an HRP-labelled anti-mouse polymer development system (Dako Ltd, UK). For the evaluation of total collagen, renal tissues were stained with Sirius red. For Col1a1 immunofluorescence, sections were blocked with BSA, incubated with the Col1a1 primary antibody raised in goat (Southern Biotech, 1/40 dilution), washed and re-incubated with secondary antibody (donkey anti-goat-FITC, 1/100 dilution, Abcam). For ED-1 staining, the cellular infiltrates in 20 consecutive glomeruli were quantified using an automated image analysis software (ImagePro Plus, Media Cybernetics, Bethesda, MD) and expressed as a percentage of total glomerular cross sectional area.

[3] = system: mouse bone marrow derived macrophages (BMDMs); assay: BMDM cell number (CyQuant); format: cell-based, C57BL/6 mouse; conditions: treatment for 24 h
Text: Figure 6 ERG240 treatment results in reduced macrophage infiltration in CIA and crescentic glomerulonephritis. (a) Inhibition of murine BMDM migration in vitro in the presence of different concentrations of ERG240 by transwell migration assay (left panel, results are presented as the average of four experiments). The drug had no effect on cell viability (right panel, results are presented as the average of three experiments). (b) IHC analysis of CIA joints for expression of F4/80. Representative images show F4/80+ cells (indicated with an arrow). F4/80+ cell quantification is shown on the right panel. (c) Representative images showing glomerular ED1 (rat CD68)-positive cells in ERG240 treated animals following NTN. Percentage of glomerular ED1-positive cell quantification is shown on the right panel. Error bars are s.e.m. […]
The migration of BMDMs was assessed using a modified Bo yden chamber methodology. […]
To determine the effect of ERG240 on the total number of BMDMs, cell s were plated onto a 96-well plate at a density of 5,000 cells per well in complete media and allowed to adhere overnight. The cells were then exposed to various drug concentrations overnight and the cell population was quantified with CyQuant Cell Proliferation kit (Life Technologies) using triplicates, in two independent experiments. For hMDMs, cell viability was determined using the alamarBlue® Assa y (Invitrogen). […]

[4] = 250 mg kg^−1 orally once a day, 10 days, day 10

CC(=O)C(C)CCC(=O)O (stereo not shown) [ERG240]
adverse effects in dose-escalating toxicity study [1]: no major adverse effects | glomerular crescent formation [2, 4]: significantly reduced | proteinuria [2, 4]: significantly reduced | serum creatinine [2, 4]: significantly reduced | interstitial fibrosis ([2]; NTN model): reduced interstitial fibrosis | Col1a1 mRNA levels in the renal cortex ([2]; day 28): reduced | Sirius red staining ([2]; day 28): reduced Sirius red staining | collagen type I alpha I quantitative immunofluorescence in nephritic kidneys ([2]; day 28): significant down-regulation | glomerular infiltration of CD68 (ED1)-positive cells ([2]; rat, in vivo): significantly decreased | BMDM cell numbers [3]: did not affect cell numbers

Reference: paper PMC5510229, “BCAT1 controls metabolic reprogramming in activated human macrophages and is associated with inflammatory diseases” (Nature Communications, 2017)
